Results on six compounds are retold here after ChEMBL document CHEMBL1121514, “6-(Phenylthio)-substituted 2,3,4,5-tetrahydro-1H-3-benzazepines, a novel class of dopamine receptor antagonists and neuroleptics” (J Med Chem, 1980).

One may read the ED50 as the dose that gives a 50% effect, or the effect in half of the subjects. A low value points to an effect at a small dose. As usually defined, the IC50 is the concentration at which inhibition is half-maximal. High values mean lower potency, low ones higher potency. In general, Ki refers to the equilibrium dissociation constant of an inhibitor or competing ligand from its target.

Assay [1] has as its system Rattus norvegicus. Briefly: Effective Dose for avoidance acquisition in naive rats when administered intraperitoneal. In kind it is functional. The conditions noted are these: ip.
Assay [2] addresses Adenylate cyclase. The assay is described as follows: Inhibitory concentration against Dopamine sensitive adenylate cyclase in rats. It counts as functional.
Assay [3] deals with Rattus norvegicus. The assay is described as follows: Effective Dose for catalepsy production in naive rats when administered intraperitoneal. In kind it is functional. The conditions noted are these: ip.
Assay [4] addresses Adenylate cyclase. Briefly: Inhibitory activity against Dopamine sensitive adenylate cyclase in rats.
The test system of assay [5] is Canis lupus familiaris. Briefly: % Change in renal vascular resistance in dogs when administered at dose 15 ug/kg intravenously.
The test system of assay [6] is Canis lupus familiaris. Briefly: % Change in renal vascular resistance in dogs when administered at dose 3 ug/kg intravenously.

As to `Br.Oc1cc2c(c(Sc3ccccc3)c1O)CCNCC2`, the ED50 in assay [1] worked out at 4.9 mg/kg; in assay [3] it was 64.6 mg/kg. The half-inhibitory concentration (IC50) in assay [2] turned out to be 2700 nM. For the same compound, the Ki in assay [4] was found to be 250 nM.
For the compound H-RPPGFSPFR-OH [BRADYKININ], the Change was -37% in assay [5] and -19% in assay [6].
Turning to `CN1CCc2c(Cl)c(O)c(O)c(Sc3ccccc3)c2CC1`, the results for the median effective dose (ED50) in assay [1] and in assay [3] were 0.08 mg/kg and 3 mg/kg, respectively. For the same compound, in assay [2], the IC50 was 360 nM. Moreover, the Ki in assay [4] was 33 nM.
For `CN(C)CCCN1c2ccccc2Sc2ccc(Cl)cc21` [CHLORPROMAZINE], in that order: 1.5 mg/kg, 4.2 mg/kg, 1300 nM and 118 nM.
With `NCCc1ccc(O)c(O)c1` [DOPAMINE], the Change in assay [6] is reported as 8%.
On to `Br.CN1CCc2cc(O)c(O)c(Sc3ccccc3)c2CC1`, for which the results for the 50% effective dose (ED50) in assay [1] and in assay [3] were 0.5 mg/kg and 5.6 mg/kg, respectively. The IC50 in assay [2] was determined as 240 nM. The compound further displayed an inhibition constant Ki in assay [4] of 22 nM.
